Experimental data: patent US20210238225A1, “PEPTIDOMIMETIC INHIBITORS OF THE PEPTIDYL-PROLYL CIS/TRANS ISOMERASE (PIN1)” (DANA-FARBER CANCER INSTITUTE, INC., priority 2018, published 2021)
“Also recorded” adds a separate entry of the source. Non-standard residues stand in square brackets, D forms with d. Residues, ends and D or L forms follow the SMILES beside them. *: point of attachment. 2Nal = N[C@@H](Cc1ccc2ccccc2c1)C(=O)O; NMeF = CN[C@@H](Cc1ccccc1)C(=O)O; Cit = NC(=O)NCCC[C@H](N)C(=O)O; Pip = O=C(O)[C@@H]1CCCCN1; ClAc = O=C(CCl)*

What was measured:
[1] = target: T1, Pin1 (GST-Pin1) (Homo sapiens, UniProt Q13526); assay: Chymotrypsin-coupled PPIase assay, inhibition of isomerase activity; format: biochemical; conditions: 12 hours pre-incubation at 4° C.; Cheng-Prusoff equation; read-out: Ki, μM (PPlase Assay)
T1 sequence (Q13526 whole entry): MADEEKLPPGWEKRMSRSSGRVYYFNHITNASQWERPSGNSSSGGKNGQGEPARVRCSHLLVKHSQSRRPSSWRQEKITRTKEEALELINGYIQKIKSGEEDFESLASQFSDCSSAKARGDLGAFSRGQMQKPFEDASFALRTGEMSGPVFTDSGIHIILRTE
Description: Inhibition of Pin1 isomerase activity was determined using the chymotrypsin-coupled PPIase assay, using GST-Pin1 and Suc-Ala-pSer-Pro-Phe-pNA peptide substrate ([…]), as described previously (Yaffe et al., Science 275:1957-1960 (1997)). GST-Pin1 was pre-incubated with the indicated concentrations of compound for 12 hours at 4° C. in buffer containing 35 mM HEPES (pH 7.8), 0.2 mM DTT, and 0.1 mg/mL bovine serum albumin (BSA). Immediately before the assay was started, chymotrypsin (final concentration 6 mg/mL), followed by the peptide substrate (Suc-Ala-pSer-Pro-Phe-pNA peptide substrate, final concentration […]) was added. The Ki value obtained from the PPIase assay was derived from the Cheng-Prusoff equation, Ki=IC50/(1+S/Km), where Km is the Michaelis constant for the used substrate, S is the initial concentration of the substrate in the assay, and IC50 is the […] inhibitory concentration of the inhibitor.

[2] = target: Pin1 Cys 113 (Homo sapiens, UniProt Q13526); assay: Covalent labeling (intact MS); format: binding; conditions: for Covalent? (In tact MS), % labeling: purified Pin1 with 5 μM inhibitor, 0-3 hr
Chain of Pin1 Cys 113 (Q13526 whole entry): as above
Description: 5 μg of purified Pin1 protein in 50 μL of 20 mM HEPES pH 7.5 and 75 mM NaCl was incubated with 5 μM of respective Pin1 inhibitors for 0-3 hr. A Shimadzu XR HPLC was used to inject the entire sample onto a self-packed reverse-phase column (1/32 in outer diameter×500 μm inner diameter, 5 cm of POROS 50R2 resin). After desalting, protein was eluted with an HPLC gradient (0%-100% B in 4 min, A=0.2 M acetic acid in water, B=0.2 M acetic acid in acetonitrile, flow rate=10 μl/min) into a LTQ XL mass spectrometer (Thermo Fisher Scientific, San Jose, Calif., USA). LTQ XL MS spectra were acquired in centroid mode using the electron multipliers for ion detection. Mass spectra were deconvoluted using MagTran1.03b2 software (Zhang and Marshall, J. Am. Soc. Mass Spectrom. 9:225-233 (1998)).

[3] = target: T2, Pin1 (Homo sapiens, UniProt Q13526); assay: Lysate target engagement (pull down with biotinylated probes; competition assay); format: binding; parameters: endogenous in cells; host or cells: MDA-MB-231; conditions: for Lysate Target Engagement?: TNBC-MDA-MB-231 lysate, biotin/dtb probes: pull down, others: competition, concentration under E5
T2 sequence (Q13526 whole entry): as above
How it was run: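 MDA-MB-231 (TNBC) lysates, 500 μg protein, incubated 1 h at 4 °C with compound, then streptavidin pull-down 2 h at 4 °C; western blot read-out. Competition format: lysate pre-incubated overnight at 4 °C with competitor, then 1 μM desthiobiotin probe for 1 h before pull-down.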

[4] = target: T2, Pin1; assay: X-ray crystallography; parameters: A construct of full-length human Pin1 in a pET28 vector; made in house; host or cells: E. coli BL21 (DE3)
Description: A construct of full-length human Pin1 in a pET28 vector was overexpressed in E. coli BL21 (DE3) in LB medium in the presence of […] of kanamycin. Cells were grown at 37° C. to an OD of 0.8, cooled to 17° C., induced with 500 μM isopropyl-1-thio-D-galactopyranoside, incubated overnight at 17° C., collected by centrifugation, and stored at −80° C. Cell pellets were sonicated in buffer A (50 mM hepes 7.5, 300 mM NaCl, 10% glycerol, 10 mM Imidazole, and 3 mM 2-mercaptoethanol (BME) and the resulting lysate was centrifuged at 30,000×g for 40 min. Ni-NTA beads (Qiagen) were mixed with lysate supernatant for 30 min and washed with buffer A. Beads were transferred to an FPLC-compatible column and the bound protein was washed with 15% buffer B (50 mM hepes 7.5, 300 mM NaCl, 10% glycerol, 300 mM imidazole, and 3 mM BME) and eluted with 100% buffer B. Thrombin was added to the eluted protein and incubated at 4° C. overnight. The sample was concentrated and passed through a Superdex® 200 10/300 column (GE healthcare) in a buffer containing 20 mM hepes 7.5, 150 mMNaCl, 5% glycerol, 3 mM DTT, and 1 mM tris(2-carboxyethyl)phosphine (TCEP). Fractions were pooled, concentrated to approximately 37 mg/ml and frozen at −80° C.
Apo protein at a final concentration of 1 mM was crystallized by sitting-drop (200 nL+200 nL) vapor diffusion at 20° C. in the following crystallization buffer: 3 M (NH4)2SO4, 100 mM BisTris-pH 7.0, 1% PEG400, and 1 mM DTT. A volume of 200 nL of 1 mM compound 2b-6 was added directly to crystals for soaking at 20° C. for 16 hrs. Crystals were transferred briefly into crystallization buffer containing 25% glycerol prior to flash-freezing in liquid nitrogen.
Diffraction data from complex crystals were collected at beamline 24ID-E of the NE-CAT at the Advanced Photon Source (Argonne National Laboratory). Data sets were integrated and scaled using XDS (Kabsch, Acta Crystallogr. D Biol. Crystallogr. D66: 133-144 (2010)). […]

[5] = target: T1, Pin1 (GST-Pin1); assay: Fluorescence polarization (FP) assay, binding to Pin1
[6] = system: phosphoRb (S780), phosphoRb (S801/811), β-Catenin, cJun, cMyc and phosphoH3 (S10); assay: Downstream signaling, western blot in TNBC MDA-MB-231 cells; format: cell-based; conditions: 10 μM, 1, 2, 4, 6 and 8 hours
Description: TNBC MDA-MB-231 cells were plated in 6-well plates at a density of 100,000 cells per well in 2 mL media. The day after plating, cells were treated with the indicated concentration of compound 18, and harvested at 1, 2, 4, 6, and 8 hours. To harvest, the cells were washed with PBS, and then lysed in RIPA Lysis Buffer (Thermo Scientific™, cat. #89900, with protease inhibitors (Roche). Lysates were clarified by centrifugation (14,000 rpm for 15 min at 4° C.), and protein concentrations were determined by BCA. The samples were normalized and prepared in 4× LDS+10% β-mercaptoethanol, and were then boiled at 95° C. for 5 minutes. Lysates were probed for specified proteins by western blotting using the Bolt system (Life Technologies™).

[7] = system: PATU-8988T cells; assay: Time-dependent antiproliferative activity (CellTiter-Glo); format: cell-based; conditions: Day 0, 2, 4, 6 and 8
Description: PATU-8988T cells were plated at a density of 100 cells per well in 100 μL media in a 96-well white clear bottom plate (Corning cat #3903), with at least one plate per time point (Day 0, 2, 4, 6 and 8). Cells were treated the day after plating with 1 μL of DMSO or Compound 18 to give the indicated concentrations, and were then incubated at 37° C. 5% CO2. Every 48 hours, the media was aspirated and replaced with fresh media containing fresh compound or DMSO. When the indicated time points had been reached, cell viability was evaluated using the CellTiter-Glo Luminescent Cell Viability Assay (Promega cat #G7570) according to the manufacturer's standards, measuring luminescence using an Envision plate-reader. The Day 0 time point plates were read the day after plating, prior to compound treatment. N=3 biological replicates were used for each treatment condition.

[8] = target: T2, Pin1; assay: Cellular target engagement, live cell biotin competition assay in TNBC MDA-MB-231 cells; format: cell-based; parameters: endogenous in cells; host or cells: MDA-MB-231
How it was run: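 Cells treated 5 h with compound, then lysed; lysates incubated with 1 μM biotin probe compound 1 h at 4° C and pulled down on streptavidin agarose 2 h at 4° C. Bound Pin1 versus input detected by western blot.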

SMILES	Ki [1] [µM]	Pin1 covalent labeling time course (FIG. 3A) ([2]; over the course of 60 minutes)	Covalent? (In tact MS), % labeling [2]	Lysate Target Engagement? [3]	X-Ray Crystal Structure? [4]	binding mode in x-ray co-crystal structure (FIG. 4A) ([4]; 1.8 A resolution, crystal soaking)	Ki ([5]; read-out: Ki quoted in figure legend, assay not named) [nM]	Ki ([5]; text and figure legend, read-out: Ki (fluorescence polarization, FIG. 1B)) [nM]	covalent labeling of Pin1 ([2]; 30-minute room temperature incubation at 1:1 Pin1:compound) [%]	downstream signaling changes (FIG. 9) [6]	cell viability (FIG. 10) [7]	competition with compound 2c for Pin1 (FIG. 6B legend) ([3]; HEK 293 cell lysate as printed in legend)	lysate target engagement by competition with 1 μM compound 2c (FIG. 6B) ([3]; TNBC-MDA-MB-231 cell lysate, pre-incubation overnight at 4° C.)	Lysate Target Engagement? concentration stated for the engagement or pull down ([3]; read with the E4 line of the same compound (complete, partial, probe pull down)) [µM]	concentration at which cellular Pin1 is fully engaged (FIG. 7B) ([8]; TNBC MDA-MB-231 cells, 5 hours) [µM]	Cellular Target Engagement? ([8]; TNBC MDA-MB-231 cells, 5 hours treatment, concentration under E7)	Cellular Target Engagement? concentration stated for complete engagement ([8]; TNBC MDA-MB-231 cells, read with the E6 line)	live cell competition with compound 2-32 (FIG. 7B legend) ([8]; preincubation of live TNBC-MDA-MB-231 cells with increasing concentrations)
N=C(N)NCCC[C@H](NC(=O)[C@H](Cc1ccc2ccccc2c1)NC(=O)[C@@H]1CCCCN1C(=O)[C@H](CCC(=O)O)NC(=O)CCl)C(N)=O [Compound 2b-6, (S)-5-((S)-2-(((S)-1-(((S)-1-Amino-5-guanidino-1-oxopentan-2-yl)amino)-3-(naphthalen-2-yl)-1-oxopropan-2-yl)carbamoyl)piperidin-1-yl)-4-(2-chloroacetamido)-5-oxopentanoic acid] (ClAc-E[Pip][2Nal]R-NH2)	0.04	rapidly labeled Pin1 Cysl 13	Yes (100%	No	Yes	covalently bound to Pin1; also recorded: covalently bound to Cys113 in the PPIase active site												
CCOC(=O)[C@H](CCCNC(N)=O)NC(=O)[C@H](Cc1c[nH]c2ccccc12)NC(=O)[C@@H]1CCCCN1C(=O)[C@H](Cc1ccccc1)N(C)C(=O)CCl [Compound 18, Ethyl (S)-2-((S)-2-((S)-1-(N-(2-chloroacetyl)-N-methyl-L-phenylalanyl)piperidine-2-carboxamido)-3-(1H-indol-3-yl)propanamido)-5-ureidopentanoate] (ClAc-[NMeF][Pip]W[Cit]-OEt)			Yes (100%	Yes-			20	20	100	a decrease in phosphoRb, β-Catenin, cJun, phosphoH3 (S10), and a temporary increase in c-Myc; also recorded: induced changes in downstream signaling	dose-dependent and time-dependent defects in cell viability	competes with compound 2c for binding of Pin1	potently engaged Pin1	500	≤ 5	Yes-Complete	at 5 μM	outcompetes compound 2-32 for Pin1 binding
